# What was measured:
# C2Cl2 cells = assay: Myoblast differentiation by meloxicam concentration (MHC immunofluorescence and Western blot); type: cell-based, mice
# Method: The C2Cl2 cells were cultured in a general cell culture medium and a differentiation medium, respectively. DMEM supplemented with 10% fetal bovine serum was used as a normal cell culture medium (i.e., a growth medium (GM)), and DMEM containing 2% horse serum was used as a differentiation medium (DM). […] After differentiation, the cells were observed under a microscope, and the cells were disrupted and subjected to Western blot analysis using myogenin and MHC antibodies, which are differentiation markers. The C2Cl2 cells were washed with 1×PBS, fixed with 4% paraformaldehyde at room temperature, and then allowed to react at room temperature after adding a permeabilization buffer. The reaction was performed with PBST (blocking buffer) containing 5% goat serum and PBS containing 0.05% Tween 20 to inhibit non-specific antibody binding. After adding a primary antibody against myosin heavy chain (MHC), the resulting mixture was allowed to react at room temperature. A secondary antibody diluted 1:5000 in a blocking buffer was added and allowed to react at room temperature, and after applying a mounting solution (40% glycerol in DW) and fixing, images were taken under a fluorescence microscope to analyze the results.
# human muscle stem cells = assay: Human muscle stem cell differentiation (MHC immunostaining, myotube diameter); type: cell-based; details: muscle stem cells from subject, meloxicam 1 μM, 4 days
# Method: In addition, human muscle stem […] human skeletal muscle cells (Standard Donors), Cat NO: SK-1111) isolated from the rectus abdominis […] were purchased from MyoSite and used. Human muscle stem […] human skeletal muscle cells (Standard Donors), Cat NO: SK-1111) isolated from the rectus abdominis […] were purchased from MyoSite and used. Human muscle stem cells were seeded in a cell culture medium and cultured for 24 hours. […] The degree of differentiation into muscle fibers was measured through MHC immunostaining, which is a muscle fiber marker. Differentiation was analyzed by muscle fiber diameter.
# 24-month-old mice = assay: Muscle mass, muscle type and motor performance in aging mice upon long-term administration; type: in vivo
# relatively young mice = assay: Grip strength and motor performance in relatively young mice (FIG. 15); type: in vivo
# Method: On day 21 after inducing CTX-injury, a grip strength test for measuring the muscle strength of the meloxicam-administered group and the control group and an experiment for confirming motor performance were conducted. The grip strength test was performed by using a mouse grip strength tester manufactured by BIOSEB.
# 4-month-old normal mice = assay: Body weight, intake, grip strength, treadmill test and muscle mass in 4-month-old normal mice upon long-term administration; type: in vivo; details: meloxicam for 2 months
# Method: In the treadmill test, measurement was performed by using a treadmill device for mice manufactured by Columbus Instruments. Measurements started at a 10% slope and 8 m/min, which was increased 1 m/min every 2 minutes, and continued until the mouse became tired.
smiles,measurement,setting,value
Cc1cnc(NC(=O)C2=C(O)c3ccccc3S(=O)(=O)N2C)s1 [meloxicam],MHC expression level (Western blot),"C2Cl2 cells; by meloxicam concentration (1-10,000 nM), FIG. 3",increased
same,MHC observed in myoblasts (fluorescence microscope),"C2Cl2 cells; high concentration of meloxicam (1-10,000 nM tested), differentiation for 3 days, FIG. 2",clearly observed
same,myotube diameter,human muscle stem cells; FIG. 4,increased
same,MHC expression,human muscle stem cells; FIG. 5,increased
same,myotube diameter,human muscle stem cells; FIG. 5,increased
same,effect of increasing motor performance,24-month-old mice; 7-month-old mice,confirmed
same,muscle mass in the hindlimb muscles and EDL muscle,"24-month-old mice; 24-month-old mice, meloxicam for 4 months, FIG. 12",increased
same,motor performance increase (rotarod apparatus) compared to the control group,"24-month-old mice; aged mice, FIG. 14",more than 50%
same,motor performance increase,relatively young mice,up to 72.3%
same,muscle strength increase (grip strength test) compared to the control group,relatively young mice; day 21 after inducing CTX-injury as printed,about 21.9%
same,body weight change compared with the non-administration group,4-month-old normal mice; FIG. 16A,no significant change
same,change in intake,4-month-old normal mice; FIG. 16B,no change
same,muscle strength (grip strength test),4-month-old normal mice; FIG. 17A,improved
same,exercise duration (treadmill test),"4-month-old normal mice; compared to the non-administration group, FIG. 17A",improved

# From patent US20240216387A1, “COMPOSITION FOR PREVENTING OR TREATING MUSCULAR DISEASE, COMPRISING OXICAM-BASED COMPOUND” (ANIMUSCURE INC., priority 2021, published 2024)
